{"source": "patent US7494821B2", "about": "“Fluorescein based sensors for tracking nitric oxide in live cells” (Massachusetts Institute of Technology, priority 2005, dated 2009)", "key": {"[1]": {"tested_on": "Raw 264.7 murine macrophage cells", "assay": "Detection of NO produced by iNOS in Raw 264.7 cells (fluorescence imaging)", "type": "cell-based", "procedure": "FIG. 8 illustrates Cu(FL5) detection of NO produced by iNOS. (a) NO detection in Raw 264.7 macrophage cells by Cu(FL5). Left to right: Cu(FL5) (1 μM) incubation with cells for 12 h, and 2, 4, 6, 8 h after addition of Cu(FL5) into cells that were pre-stimulated for 4 h with LPS (500 ng mL^−1) and IFN-γ (250 U mL^−1). The times depicted in the figure are the total incubation times with Cu(FL5). Images were taken immediately after removing the media and washing the cells three times with PBS. The instrument used was a Zeiss Axiovert 200M inverted epifluorescence microscope with differential interference contrast (DIC). Top: fluorescence images; bottom: DIC images. (b) Silencing of iNOS by RNAi in Raw 264.7 cells. A plasmid expressing shRNA was constructed to target the mRNA of iNOS. It was transfected into cells. The plasmid vector without insert for RNAi was transfected to establish a control cell line. The expression of iNOS in these two cell lines after stimulated by LPS and IFN-γ for 12 h was investigated by Western blot on the whole cell extracts with antibodies against the protein and actin, which served as loading control (lane 1: cells with control plasmid vector, lane 2: cells with plasmid expressing shRNA for iNOS). (c) NO detection in Raw 264.7 cells with iNOS silenced by RNAi. The two lines in (b) were treated with LPS and IFN-γ for 4 h before 8 h of incubation with Cu(FL5).\nIn macrophages, nitric oxide is produced by inducible NO synthases (“iNOS”). […] This method colorimetrically determines the concentration of NO2^− resulting from NO oxidation in the extracellular space. Fluorescence detection of NO production by stimulated macrophage cells was also achieved by incubation of the extracellular fluid with DAN and DAFs. These dyes improved the sensitivity of Griess assay, but were unable to reveal NO production inside cells with spatial and temporal fidelity. The present Cu(FL5) construct, however, readily detects NO produced in activated Raw 264.7 cells by fluorescence turn-on. Macrophage cells were incubated with LPS (500 ng/mL) and IFN-γ (250 U/mL) for 4 h, after which 1 μM Cu(FL5) was applied. The fluorescence response was monitored at 2 h intervals by microscopy (FIG. 6a).\nTo investigate further the origin of fluorescence detected by Cu(FL5), iNOS was silenced in Raw 264.7 cells by short hairpin RNA (shRNA)-induced RNA interference (RNAi) (FIG. 6b).\nRaw 264.7, SK-N-SH, and HeLa cells were purchased from the American Type Culture Collection (ATCC). […] The expression of iNOS in Raw 264.7 cells was analyzed by Western blot on the extracts of cells stimulated by LPS and INF-γ. The protein was silenced by short hairpin RNA-induced RNAi and the resulting cell lines were used in fluorescence imaging by Cu(FL5)."}, "[2]": {"assay": "Fluorescence response to NO in buffered aqueous solution", "conditions": "for fluorescence on reaction with NO-releasing agent SNAP: pH 7.0 (50 mM PIPES, 100 mM KCl), 30 min time interval", "procedure": "FIG. 5 depicts the fluorescence response of Cu(FL5) to NO. Fluorescence emission spectra (λex=503 nm) of a deoxygenated 1 μM solution of Cu(FL5) in buffered solution (50 mM PIPES, pH 7.0, 100 mM KCl) before (dashed line), immediately, 1, 2 and 5 min after (solid lines) admission of 1300 equiv of NO (g) at 37° C.\nThe fluorescence of a 1 μM FL5 solution was diminished by 18±3% upon introduction of an equimolar quantity of CuCl2 at 37° C. Addition of excess NO to a buffered aqueous Cu(FL5) solution led to an immediate 11.2±1.5-fold increase in fluorescence (FIG. 5). […] The lower detection limit for NO is 5 nM.\nA commercially available NO probe, DAF-2 (o-diaminofluorescein), was used for comparison with Cu(FL5). The fluorescence of DAF-2 is unchanged in the presence of NO and the absence of O2 over a period of 1 h.\nAs depicted in FIG. 4, NO detection by Cu(FL5) occurs, formally, by nitric oxide-induced reduction of Cu(II) to Cu(I), forming NO^+, which nitrosates the ligand with concomitant dissociation from copper and fluorescence turn-on. The mechanism of turn-on emission of Cu(FL5) by NO was investigated by EPR, UV-vis, NMR and fluorescence spectroscopy and by liquid chromatography-mass spectrometry (LC-MS, low resolution MS)."}, "[3]": {"tested_on": "SK-N-SH human neuroblastoma cells", "assay": "Detection of NO produced by cNOS in SK-N-SH cells (fluorescence imaging)", "type": "cell-based", "procedure": "FIG. 7 illustrates Cu(FL5) detection of NO produced by cNOS. (a) NO detection in SK-N-SH cells by Cu(FL5). Left to right: 25 min incubation of Cu(FL5) (1 μM) and 5, 10, 15, 25 min after co-treatment of Cu(FL5) (1 μM) and 17β-estradiol (100 nM). Images were taken with a Nikon Eclipse TS100 microscope after removing the DMEM media and washing the cells with PBS. Top: fluorescence images; bottom: phase contrast images. (b) Fluorescence intensity (F(t)/FCu(FL5)) from a was plotted against incubation time. (c) NO production with or without of L-NNA. Right: NO detection in cells after 10 min co-incubation of Cu(FL5) (1 μM) and 17β-estradiol (100 nM). Left: NO detection in cells pre-treated with L-NNA for 1 h before addition of Cu(FL5) and 17β-estradiol.\nWe investigated the ability of Cu(FL5) to detect NO produced in SK-N-SH human neuroblastoma cells under physiological conditions, since constitutive NO synthase (“cNOS”) in this cell line can be activated by estrogen to produce NO. Estrogen administration leads to an increase in the cytosolic Ca(II) concentration that alters the structure of calmodulin, which in turn activates cNOS. The NO-dependent fluorescence response, monitored after simultaneous administration of 17β-estradiol (100 nM) and Cu(FL5) (1 μM) to the cells, was completed within 5 min with a 4.0±0.6-fold increase in fluorescence (FIGS. 5a and b). […] As another control, HeLa cells were co-treated with 17β-estradiol (100 nM) and Cu(FL5) (1 μM).\nRaw 264.7, SK-N-SH, and HeLa cells were purchased from the American Type Culture Collection (ATCC). All three cell lines were maintained in Dulbecco's modified Eagles' media (DMEM) (GibcoBRL) containing 10% (v/v) heat-inactivated fetal bovine serum (FBS) (HyClone), 1 mM sodium pyruvate (Sigma), 100 units/ml penicillin, 100 μg/ml streptomycin (Invitrogen), and 0.1 mM nonessential amino acid solution for minimal essential medium (Sigma). All cells were grown at 37° C. in a humidified atmosphere of 10% CO2. A nitrite assay was performed with Griess reagents (Promega) on Raw 264.7 cells grown in DMEM free of phenol red. Calcium sensor fluo-4 AM was purchased from Invitrogen. MTT [3-(4,5-dimethylthiazol-2-yl)-2,5-diphenyltetrazolium bromide] (Sigma-Aldrich) assay was described in Supplementary information. The expression of iNOS in Raw 264.7 cells was analyzed by Western blot on the extracts of cells stimulated by LPS and INF-γ. The protein was silenced by short hairpin RNA-induced RNAi and the resulting cell lines were used in fluorescence imaging by Cu(FL5)."}}, "data": [{"smiles": "Cc1ccc2cccc(NCc3c([O][Cu][Cl])ccc4c(-c5ccccc5C(=O)O)c5cc(Cl)c(=O)cc-5oc34)c2n1", "note": "[Cu(FL5)]", "values": [{"measurement": "average fluorescence in activated Raw 264.7 cells", "setting": "[1]; LPS (500 ng/mL) and IFN-γ (250 U/mL) 4 h, then 1 μM Cu(FL5), monitored at 2 h intervals", "result": "slowly increased over 12 h"}, {"measurement": "fluorescence response in Raw 264.7 cells with iNOS silenced by shRNA vs plasmid vector only", "setting": "[1]; stimulated by LPS and IFN-γ", "result": "much weaker fluorescence response"}, {"measurement": "fluorescence response in stimulated Raw 264.7 cells in presence of iNOS inhibitor L-NMA", "setting": "[1]; vs absence of L-NMA", "result": "notably weaker fluorescence response"}, {"measurement": "fluorescence response to NO under both anaerobic and aerobic conditions", "setting": "[2]", "result": "immediate fluorescence response"}, {"measurement": "lower detection limit for NO", "setting": "[2]", "result": 5, "unit": "nM"}, {"measurement": "increase in fluorescence upon addition of excess NO", "setting": "[2]; buffered aqueous solution, immediate", "result": "11.2±1.5", "unit": "fold"}, {"measurement": "increase in fluorescence upon addition of NO in the presence of excess EDTA", "setting": "[2]; excess EDTA chelating Cu(II)", "result": "1.3±0.2", "unit": "fold"}, {"measurement": "fluorescence on reaction with NO-releasing agent SNAP", "setting": "[2]", "result": "enhanced"}, {"measurement": "fluorescence on reaction with NO-releasing agent SNAP", "setting": "[2]; listed as Cu(II)(FL5)", "result": "turn-on fluorescence"}, {"measurement": "increase in fluorescence in SK-N-SH cells", "setting": "[3]; 17β-estradiol (100 nM) and Cu(FL5) (1 μM) administered simultaneously", "result": "4.0±0.6", "unit": "fold"}, {"measurement": "time to complete fluorescence response in SK-N-SH cells", "setting": "[3]; 17β-estradiol (100 nM), probe 1 μM", "result": "≤ 5", "unit": "min"}, {"measurement": "fluorescence response in presence of cNOS inhibitor L-NNA", "setting": "[3]; 17β-estradiol-stimulated SK-N-SH cells", "result": "notably weaker fluorescence response"}, {"measurement": "fluorescence enhancement in living cells, both cNOS and iNOS", "setting": "[3]; both cell lines (Raw 264.7 and SK-N-SH)", "result": "> 4", "unit": "fold"}, {"measurement": "brightness of NO visualization compared with DAF-2 DA", "setting": "[3]; estradiol-stimulated neuroblastoma cells", "result": "brighter fluorescence than DAF-2 DA"}]}, {"smiles": "Cc1ccc2cccc(NCc3c(O)ccc4c(-c5ccccc5C(=O)O)c5cc(Cl)c(=O)cc-5oc34)c2n1", "note": "[FL5, 2-{2-chloro-6-hydroxy-5-[(2-methyl-quinolin-8-ylamino)-methyl]-3-oxo-3H-xanthen-9-yl}-benzoic acid]", "values": [{"measurement": "turn-on fluorescence emission in stimulated Raw 264.7 cells without Cu(II) ion", "setting": "[1]; LPS and IFN-γ, 12 h incubation period", "result": "not observed"}, {"measurement": "increase in fluorescence when treated with excess NO over 30 min", "setting": "[2]; control: no Cu(II), over 30 min", "result": "1.5±0.2", "unit": "fold"}, {"measurement": "fluorescence in stimulated SK-N-SH cells in the absence of Cu(II) ion", "setting": "[3]; over a period of 25 min", "result": "no fluorescence increase"}]}]}
